Measurements taken from the supplement of paper PMC10307832.

Tests used:
Assay in all cases: relative viability (nuclei count vs DMSO), 5 days (fraction); higher = more cells survive
HOP-62 = tested on: HOP-62
Method in brief: (§1)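 Each reported value is a median over duplicate plates. It expresses relative viability: treated-well nuclei count divided by vehicle-well nuclei count. Lung cancer cell lines in 1536-well plates were dosed by pin tool a day after seeding, alone with one drug or with a fixed anchor-drug dose plus five library-drug doses (not always all listed) in √10 steps, and nuclei were counted after 5 days.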

NCI-H1437 = tested on: NCI-H1437
Method in brief: as §1

SW 1573 = tested on: SW 1573
Method in brief: as §1

SK-LU-1 = tested on: SK-LU-1
Method in brief: as §1

HCC-827 = tested on: HCC-827
Method in brief: as §1

NCI-H1395 = tested on: NCI-H1395
Method in brief: as §1

NCI-H2009 = tested on: NCI-H2009
Method in brief: as §1

HCC-366 = tested on: HCC-366
Method in brief: as §1

NCI-H522 = tested on: NCI-H522
Method in brief: as §1

COR-L 105 = tested on: COR-L 105
Method in brief: as §1

NCI-H2228 = tested on: NCI-H2228
Method in brief: as §1

NCI-H1755 = tested on: NCI-H1755
Method in brief: as §1

NCI-H727 = tested on: NCI-H727
Method in brief: as §1

A-427 = tested on: A-427
Method in brief: as §1

CAL-12T = tested on: CAL-12T
Method in brief: as §1

NCI-H1792 = tested on: NCI-H1792
Method in brief: as §1

EMC-BAC-2 = tested on: EMC-BAC-2
Method in brief: as §1

NCI-H1915 = tested on: NCI-H1915
Method in brief: as §1

HARA = tested on: HARA
Method in brief: as §1

LCLC-103H = tested on: LCLC-103H
Method in brief: as §1

NCI-H23 = tested on: NCI-H23
Method in brief: as §1

NCI-H460 = tested on: NCI-H460
Method in brief: as §1

Structure (SMILES): Nc1ccn([C@@H]2O[C@H](CO)[C@@H](O)[C@@H]2O)c(=O)n1 [Cytarabine] + O=C(c1cc(Cc2n[nH]c(=O)c3ccccc23)ccc1F)N1CCN(C(=O)C2CC2)CC1 [Olaparib] (partner 8 µM)
- relative viability (HOP-62; first compound 0.005 µM): 0.436
- relative viability (HOP-62; first compound 0.01581 µM): 0.338
- relative viability (HOP-62; first compound 0.05 µM): 0.253
- relative viability (HOP-62; first compound 0.1581 µM): 0.13
- relative viability (HOP-62; first compound 0.5 µM): 0.0414
- relative viability (NCI-H1437; first compound 0.005 µM): 0.529
- relative viability (NCI-H1437; first compound 0.01581 µM): 0.51
- relative viability (NCI-H1437; first compound 0.05 µM): 0.469
- relative viability (NCI-H1437; first compound 0.1581 µM): 0.283
- relative viability (NCI-H1437; first compound 0.5 µM): 0.234
- relative viability (SW 1573; first compound 0.005 µM): 0.513
- relative viability (SW 1573; first compound 0.01581 µM): 0.329
- relative viability (SW 1573; first compound 0.05 µM): 0.384
- relative viability (SW 1573; first compound 0.1581 µM): 0.166
- relative viability (SW 1573; first compound 0.5 µM): 0.108
- relative viability (SK-LU-1; first compound 0.005 µM): 0.472
- relative viability (SK-LU-1; first compound 0.01581 µM): 0.392
- relative viability (SK-LU-1; first compound 0.05 µM): 0.32
- relative viability (SK-LU-1; first compound 0.1581 µM): 0.284
- relative viability (SK-LU-1; first compound 0.5 µM): 0.235
- relative viability (HCC-827; first compound 0.005 µM): 0.459
- relative viability (HCC-827; first compound 0.01581 µM): 0.367
- relative viability (HCC-827; first compound 0.05 µM): 0.0662
- relative viability (HCC-827; first compound 0.1581 µM): 0.159
- relative viability (HCC-827; first compound 0.5 µM): 0.189
- relative viability (NCI-H1395; first compound 0.005 µM): 0.463
- relative viability (NCI-H1395; first compound 0.01581 µM): 0.432
- relative viability (NCI-H1395; first compound 0.05 µM): 0.396
- relative viability (NCI-H1395; first compound 0.1581 µM): 0.41
- relative viability (NCI-H1395; first compound 0.5 µM): 0.335
- relative viability (NCI-H2009; first compound 0.005 µM): 0.744
- relative viability (NCI-H2009; first compound 0.01581 µM): 0.752
- relative viability (NCI-H2009; first compound 0.05 µM): 0.724
- relative viability (NCI-H2009; first compound 0.1581 µM): 0.644
- relative viability (NCI-H2009; first compound 0.5 µM): 0.202
- relative viability (HCC-366; first compound 0.005 µM): 0.316
- relative viability (HCC-366; first compound 0.01581 µM): 0.362
- relative viability (HCC-366; first compound 0.05 µM): 0.32
- relative viability (HCC-366; first compound 0.1581 µM): 0.136
- relative viability (HCC-366; first compound 0.5 µM): 0.0939
- relative viability (NCI-H522; first compound 0.005 µM): 0.654
- relative viability (NCI-H522; first compound 0.01581 µM): 0.602
- relative viability (NCI-H522; first compound 0.05 µM): 0.813
- relative viability (NCI-H522; first compound 0.1581 µM): 0.545
- relative viability (NCI-H522; first compound 0.5 µM): 0.426
- relative viability (COR-L 105; first compound 0.005 µM): 0.841
- relative viability (COR-L 105; first compound 0.01581 µM): 0.791
- relative viability (COR-L 105; first compound 0.05 µM): 0.417
- relative viability (COR-L 105; first compound 0.1581 µM): 0.469
- relative viability (COR-L 105; first compound 0.5 µM): 0.358
- relative viability (NCI-H2228; first compound 0.005 µM): 0.379
- relative viability (NCI-H2228; first compound 0.01581 µM): 0.203
- relative viability (NCI-H2228; first compound 0.05 µM): 0.19
- relative viability (NCI-H2228; first compound 0.1581 µM): 0.13
- relative viability (NCI-H2228; first compound 0.5 µM): 0.129
- relative viability (NCI-H1755; first compound 0.005 µM): 0.893
- relative viability (NCI-H1755; first compound 0.01581 µM): 0.889
- relative viability (NCI-H1755; first compound 0.05 µM): 0.584
- relative viability (NCI-H1755; first compound 0.1581 µM): 0.398
- relative viability (NCI-H1755; first compound 0.5 µM): 0.342
- relative viability (NCI-H727; first compound 0.005 µM): 0.659
- relative viability (NCI-H727; first compound 0.01581 µM): 0.541
- relative viability (NCI-H727; first compound 0.05 µM): 0.679
- relative viability (NCI-H727; first compound 0.1581 µM): 0.542
- relative viability (NCI-H727; first compound 0.5 µM): 0.566
- relative viability (A-427; first compound 0.005 µM): 0.479
- relative viability (A-427; first compound 0.01581 µM): 0.551
- relative viability (A-427; first compound 0.05 µM): 0.304
- relative viability (A-427; first compound 0.1581 µM): 0.223
- relative viability (A-427; first compound 0.5 µM): 0.253
- relative viability (CAL-12T; first compound 0.005 µM): 0.859
- relative viability (CAL-12T; first compound 0.01581 µM): 0.68
- relative viability (CAL-12T; first compound 0.05 µM): 0.537
- relative viability (CAL-12T; first compound 0.1581 µM): 0.288
- relative viability (CAL-12T; first compound 0.5 µM): 0.223
- relative viability (NCI-H1792; first compound 0.01581 µM): 0.399
- relative viability (NCI-H1792; first compound 0.05 µM): 0.248
- relative viability (NCI-H1792; first compound 0.1581 µM): 0.167
- relative viability (NCI-H1792; first compound 0.5 µM): 0.0776
- relative viability (EMC-BAC-2; first compound 0.005 µM): 0.53
- relative viability (EMC-BAC-2; first compound 0.01581 µM): 0.449
- relative viability (EMC-BAC-2; first compound 0.05 µM): 0.369
- relative viability (EMC-BAC-2; first compound 0.1581 µM): 0.287
- relative viability (EMC-BAC-2; first compound 0.5 µM): 0.27
- relative viability (NCI-H1915; first compound 0.005 µM): 0.288
- relative viability (NCI-H1915; first compound 0.01581 µM): 0.253
- relative viability (NCI-H1915; first compound 0.05 µM): 0.261
- relative viability (NCI-H1915; first compound 0.1581 µM): 0.24
- relative viability (NCI-H1915; first compound 0.5 µM): 0.212
- relative viability (HARA; first compound 0.005 µM): 0.928
- relative viability (HARA; first compound 0.01581 µM): 0.413
- relative viability (HARA; first compound 0.05 µM): 0.487
- relative viability (HARA; first compound 0.1581 µM): 0.179
- relative viability (HARA; first compound 0.5 µM): 0.162
- relative viability (LCLC-103H; first compound 0.005 µM): 0.717
- relative viability (LCLC-103H; first compound 0.01581 µM): 0.725
- relative viability (LCLC-103H; first compound 0.05 µM): 0.906
- relative viability (LCLC-103H; first compound 0.1581 µM): 0.803
- relative viability (LCLC-103H; first compound 0.5 µM): 0.792
- relative viability (NCI-H23; first compound 0.005 µM): 0.387
- relative viability (NCI-H23; first compound 0.01581 µM): 0.244
- relative viability (NCI-H23; first compound 0.05 µM): 0.227
- relative viability (NCI-H23; first compound 0.1581 µM): 0.121
- relative viability (NCI-H23; first compound 0.5 µM): 0.148
- relative viability (NCI-H460; first compound 0.005 µM): 0.355
- relative viability (NCI-H460; first compound 0.01581 µM): 0.367
- relative viability (NCI-H460; first compound 0.05 µM): 0.237
- relative viability (NCI-H460; first compound 0.1581 µM): 0.0662
- relative viability (NCI-H460; first compound 0.5 µM): 0.0537
